Source: ChEMBL document CHEMBL1135964, “Highly potent inhibitors of TNF-alpha production. Part 2: identification of drug candidates” (Bioorg Med Chem Lett, 2002)

Columns and labels:
Rattus norvegicus [1] = test: Tested for the inhibition of umor necrosis factor alpha production after intravenous administration at the dosage of 30 mg/kg to rat; assay type: functional
Mus musculus [2] = test: Tested for minimum effective dose in LPS-induced shock model in mice after intravenous administration at a dose of 5 mg / kg; survival rate=10/18; assay type: functional; details: read-out: MED
[3] = Tested for the safety in rats reported as minimum lethal dose; mortality rate=1/3; assay type: ADME; details: rat, in vivo
Rattus norvegicus [4] = test: Tested for the inhibition of Tumor necrosis factor alpha production after intravenous administration to rat; assay type: functional; details: read-out: ID50 (the source's name)
Rattus norvegicus [5] = test: Tested for minimum effective dose in D-(+)-Galactosamine/ LPS-induced hepatitis model in rat after intravenous dosage of 1 g/ 7.5 ug/ 5 mL/kg; survival rate=8/18; assay type: functional; details: read-out: MED
Rattus norvegicus [6] = test: Tested for the inhibition of Tumor necrosis factor alpha production after intravenous administration at the dosage of 10 mg/kg to rat; assay type: functional; details: for inhibition in vivo at 10 mg/kg: Rattus norvegicus
Mus musculus [7] = test: Tested for the inhibition of Tumor necrosis factor alpha production after intravenous administration at the dosage of 10 mg/kg to mice; no activity was observed; assay type: functional
Rattus norvegicus [8] = test: Tested for the inhibition of Inhibitor of Tumor necrosis factor alpha production after intravenous administration to rat; assay type: functional; details: read-out: ID50 (the source's name)
Rattus norvegicus [9] = test: Tested for minimum effective dose in D-(+)-Galactosamine/ LPS-induced hepatitis model in rat after intravenous dosage of 1 g/ 7.5 ug/ 5 mL/kg; survival rate=7/18; assay type: functional; details: read-out: MED
[10] = Tested for the safety in rats reported as minimum lethal dose; mortality rate=0/3; assay type: ADME; details: rat, in vivo
Mus musculus [11] = test: Tested for the inhibition of Tumor necrosis factor alpha production after intravenous administration in mice; assay type: functional; details: read-out: ID50 (the source's name)
Rattus norvegicus [12] = test: Tested for minimum effective dose in D-(+)-Galactosamine/ LPS-induced hepatitis model in rat after intravenous dosage of 1 g/ 7.5 ug/ 5 mL/kg; survival rate=6/18; assay type: functional; details: read-out: MED
Mus musculus [13] = test: Tested for minimum effective dose in LPS-induced shock model in mice after intravenous administration at a dose of 5 mg / kg; survival rate=14/20; assay type: functional; details: read-out: MED

In the case of `CCCCCCCC(=O)N[C@@H](c1ccccc1)[C@@H](C)OP(=O)(O)O`, the inhibition in vivo at 30 mg/kg (Rattus norvegicus [1]) was 5%.
`CCCCCCCC(=O)N[C@H](c1cccc(OC(C)C)c1)[C@H](C)OP(=O)([O-])[O-].[Na+].[Na+]` gave a minimal effective dose (Mus musculus [2]) of 0.3 mg/kg, an MLD [3] of 100 mg/kg and an ED50 (Rattus norvegicus [4]) of 0.05 mg/kg. For the same molecule, the minimal effective dose (Rattus norvegicus [5]) was 0.3 mg/kg.
Molecule `CCCCCCCC(=O)N[C@H](c1cccc(OC)c1)[C@@H](C)OP(=O)(O)O` has an inhibition in vivo at 10 mg/kg (Rattus norvegicus [6]) of -13%.
`CCCCCCCC(=O)N[C@@H](CO)c1ccccc1` showed an inhibition in vivo at 10 mg/kg (Mus musculus [7]) of 14%.
`CCCCCCCC(=O)N[C@@H](COP(=O)([O-])[O-])c1cccc(OC)c1.[Na+].[Na+]` showed an ED50 (Rattus norvegicus [4]) of 0.26 mg/kg.
Molecule `CCCCCCCC(=O)N[C@H](c1ccccc1)[C@@H](OP(=O)(O)O)c1ccccc1` has an inhibition in vivo at 10 mg/kg (Rattus norvegicus [6]) of 3%.
In the case of `CCCCCCCC(=O)N[C@@H](COP(=O)([O-])[O-])c1ccccc1.[Na+].[Na+]`, the ED50 (Rattus norvegicus [4]) was 3 mg/kg.
`CCCCCCCC(=O)N[C@H](c1ccccc1)[C@H](C)OP(=O)([O-])[O-].[Na+].[Na+]` showed an ED50 (Rattus norvegicus [4]) of 4.5 mg/kg.
In the case of `CCCCCCCC(=O)N[C@H](c1ccccc1)[C@@H](C)OP(=O)(O)O`, the inhibition in vivo at 30 mg/kg (Rattus norvegicus [1]) was 23%.
For `CCCCCCCC(=O)N[C@@H](c1cccc(OC)c1)[C@@H](C)OP(=O)(O)O`, the inhibition in vivo at 10 mg/kg (Rattus norvegicus [6]) was 38%.
`CCCCCCCC(=O)N[C@@H](c1cccc(OC)c1)[C@H](C)OP(=O)([O-])[O-].[Na+].[Na+]` gave an ED50 (Rattus norvegicus [4]) of 3.7 mg/kg.
With `CCCCCCCC(=O)N[C@@H](c1ccccc1)[C@H](C)OP(=O)(O)O` the inhibition in vivo at 30 mg/kg (Rattus norvegicus [1]) was 17%.
`CCCCCCCC(=O)N[C@H](c1ccccc1)[C@H](CO)OP(=O)(O)O` gave an inhibition in vivo at 10 mg/kg (Rattus norvegicus [6]) of 42%.
For `CCCCCCCC(=O)N(C)[C@@H](COP(=O)([O-])[O-])c1ccccc1.[Na+].[Na+]`, the ED50 (Rattus norvegicus [4]) was 9.8 mg/kg.
For `CCCCCCCC(=O)N[C@@H]1c2ccccc2C[C@@H]1OP(=O)([O-])[O-].[Na+].[Na+]`, the Inhibition (Rattus norvegicus [6]) was 34%.
Molecule `CCCCCCCC(=O)N[C@H](c1cccc(OC)c1)[C@H](C)OP(=O)([O-])[O-].[Na+].[Na+]` has an ED50 (Rattus norvegicus [8]) of 0.03 mg/kg, a minimal effective dose (Rattus norvegicus [9]) of 0.3 mg/kg and a minimal effective dose (Mus musculus [2]) of 0.1 mg/kg. The MLD [10] was over 100 mg/kg.
`CCCCCCCC(=O)N[C@H](c1ccccc1)C1(OP(=O)([O-])[O-])CCC1.[Na+].[Na+]` showed an ED50 (Mus musculus [11]) of 9.5 mg/kg.
With `CCCCCCCC(=O)N[C@@H]1c2ccccc2C[C@H]1OP(=O)([O-])[O-].[Na+].[Na+]` the ED50 (Rattus norvegicus [4]) was 2.4 mg/kg.
With `CCCCCCCC(=O)N[C@H](c1cccc(OC)c1)C(C)(C)OP(=O)(O)O` the inhibition in vivo at 10 mg/kg (Rattus norvegicus [6]) was 12%.
`CCCCCCOC(=O)N[C@H](c1cccc(OC)c1)[C@H](C)OP(=O)([O-])[O-].[Na+].[Na+]` gave a minimal effective dose (Rattus norvegicus [12]) of 0.1 mg/kg, a minimal effective dose (Mus musculus [13]) of 0.1 mg/kg and an ED50 (Rattus norvegicus [4]) of 0.02 mg/kg. The MLD [10] was over 100 mg/kg.
